Experimental data as given in patent US7994334B2, “Fungicide pyridinyloxy substituted phenylamidine derivatives” (Bayer Cropscience AG, priority 2005, dated 2011).

Experiment: logP by HPLC on reversed-phase column (C 18), EEC Directive 79/831 Annex V.A8
Type: physicochemical
Settings: C 18, 40° C., 0.1% aqueous formic acid and acetonitrile
Procedure: Temperature: 40° C.; Mobile phases: 0.1% aqueous formic acid and acetonitrile; linear gradient from 10% acetonitrile to 90% acetonitrile.

SMILES | logPa
CCCN(C)C=Nc1cc(C)c(Oc2ccnc(Cl)c2)cc1C [Example 72] | 1.56
CCN(C)C=Nc1cc(C)c(Oc2cc(C(F)(F)F)c(F)c(F)n2)cc1C [Example 62] | 2.31
CCN(C)C=Nc1ccc(Oc2ccc(I)cn2)cc1C [Example 17] | 1.87
C=CCN(C)C=Nc1cc(C)c(Oc2ccnc(Cl)c2)cc1C [Example 81] | 1.74
CCCc1cc(CCC)nc(Oc2cc(C)c(N=CN(C)CC)cc2C)c1 [Example 30] | 2.97
CCN(C)C=Nc1cc(C)c(Oc2ccc(C(F)(F)F)c(Cl)n2)cc1C [Example 6] | 2.36
Cc1cc(Oc2ccnc(Cl)c2)c(C)cc1N=CN1CCCC1 [Example 71] | 1.52
CCN(C)C=Nc1cc(C)c(Oc2ncc(C(F)(F)F)cc2Cl)cc1C [Example 44] | 2.15
CCN(C)C=Nc1ccc(Oc2ccc(C(F)(F)F)cn2)cc1C [Example 9] | 1.79
CCN(C)C=Nc1cc(C)c(Oc2cc(C#N)ccn2)cc1C [Example 31] | 1.42
CCCN(C)C=Nc1cc(C)c(Oc2cc(Cl)cc(CC)n2)cc1C [Example 42] | 2.00
Cc1cc(Oc2cccc(Br)n2)c(C)cc1N=CN1CCCCC1 [Example 59] | 2.06
CCN(C)C=Nc1cc(C)c(Oc2cc(C(F)(F)F)ccn2)cc1C [Example 27] | 1.96
CCN(C)C=Nc1cc(C)c(Oc2cccc(C(F)(F)F)n2)cc1C [Example 61] | 1.98
CCN(C=Nc1cc(C)c(Oc2cc(C(F)(F)F)cc(Cl)n2)cc1C)CC [Example 18] | 2.59
CCCN(C)C=Nc1cc(C)c(Oc2cc(C(F)(F)F)c(F)c(F)n2)cc1C [Example 63] | 2.48
CCN(C)C=Nc1cc(C)c(Oc2cccc(Br)n2)cc1C [Example 57] | 1.89
CCCN(C)C=Nc1cc(C)c(Oc2ccc(C#N)cn2)cc1C [Example 36] | 1.63
CCN(C)C=Nc1cc(C)c(Oc2ccc(I)cn2)cc1C [Example 14] | 2.10
CCN(C)C=Nc1cc(C)c(Oc2ccc(C)nc2)cc1C [Example 65] | 0.60
CCN(C)C=Nc1cc(C(C)C)c(Oc2cc(C(F)(F)F)cc(Cl)n2)cc1C [Example 24] | 2.87
Cc1cc(Oc2ccc(C)c(Cl)n2)c(C)cc1N=CN1CCCCC1 [Example 50] | 2.21
CCN(C)C=Nc1cc(C)c(Oc2ccnc(Cl)c2)cc1C [Example 69] | 1.45
Cc1cc(Oc2ccnc(C(F)(F)F)c2)c(C)cc1N=CN1CCCCC1 [Example 79] | 1.78
CCN(C)C=Nc1cc(C)c(Oc2cc(C(F)(F)F)cc(C)n2)cc1C [Example 25] | 2.19
Cc1cc(Oc2ccc(C(F)(F)F)c(Cl)n2)c(C)cc1N=CN(C)C(C)C [Example 13] | 2.51

SMILES | logPa
Cc1cc(Oc2ccc(C)c(Cl)n2)c(C)cc1N=CN1CCCC1 [Example 52] | 2.05
CCN(C)C=Nc1cc(C)c(Oc2ncc(Cl)cc2Cl)cc1C [Example 28] | 2.00
Cc1cc(Oc2cc(C(F)(F)F)cc(Cl)n2)c(C(C)C)cc1N=CN(C)C(C)C [Example 21] | 2.97
CCc1cc(Cl)cc(Oc2cc(C)c(N=CN3CCCCC3)cc2C)n1 [Example 40] | 2.04
CCCN(C)C=Nc1cc(C)c(Oc2cc(Cl)cc(C(C)C)n2)cc1C [Example 54] | 2.35
Cc1cc(Oc2ncc(C(F)(F)F)cc2Cl)c(C)cc1N=CN(C)C(C)C [Example 43] | 2.29
Cc1cc(Oc2ncc(Cl)cc2Cl)c(C)cc1N=CN(C)C(C)C [Example 32] | 2.24
CCN(C)C=Nc1ccc(Oc2ncc(C(F)(F)F)cc2Cl)cc1C [Example 2] | 2.21
Cc1cc(Oc2ccnc(C(F)(F)F)c2)c(C)cc1N=CN1CCCC1 [Example 80] | 1.69
CCc1nccc(Oc2cc(C)c(N=CN3CCCCC3)cc2C)c1Cl [Example 75] | 1.56
CCN(C)C=Nc1cc(C)c(Oc2ccc(C)c(Cl)n2)cc1C [Example 49] | 2.01
CCN(C)C=Nc1cc(C)c(Oc2ccc(C(F)(F)F)cn2)cc1C [Example 10] | 1.86
CCN(C)C=Nc1cc(C)c(Oc2cc(Cl)ccn2)cc1C [Example 56] | 1.75
CCCN(C)C=Nc1cc(C)c(Oc2cc(C(F)(F)F)cc(Cl)n2)cc1C [Example 19] | 2.66
CCc1cc(Cl)cc(Oc2cc(C)c(N=CN(C)CC)cc2C)n1 [Example 48] | 1.98
Cc1cc(Oc2cccc(Br)n2)c(C)cc1N=CN1CCCC1 [Example 60] | 1.90
CCN(C)C=Nc1cc(C)c(Oc2cc(Cl)cc(C(C)C)n2)cc1C [Example 33] | 2.18
Cc1cc(Oc2ccc(C#N)cn2)c(C)cc1N=CN1CCCC1 [Example 39] | 1.46
CCCN(C)C=Nc1cc(C)c(Oc2ncc(Cl)cc2Cl)cc1C [Example 29] | 2.22
CCN(C)C=Nc1cc(C)c(Oc2cccc(Cl)n2)cc1C [Example 26] | 1.78
CCN(C)C=Nc1cc(C)c(Oc2cccc(-c3ccc(Cl)cc3)n2)cc1C [Example 45] | 2.66
CCN(C)C=Nc1cc(C)c(Oc2ccc(Cl)cn2)cc1C [Example 8] | 1.84
Cc1cc(Oc2cc(C(F)(F)F)cc(Cl)n2)c(C)cc1N=CN(C)C(C)C [Example 12] | 2.52
CCN(C)C=Nc1cc(C)c(Oc2ccc(C#N)cn2)cc1C [Example 35] | 1.47
CCN(C)C=Nc1cc(C)c(Oc2cncc(Cl)c2)cc1C [Example 67] | 1.82
CCN(C)C=Nc1cc(C)c(Oc2cccnc2C)cc1C [Example 66] | 1.56

SMILES | logPa
Cc1cc(Oc2cccc(Cl)n2)c(C)cc1N=CN1CCCCC1 [Example 47] | 1.96
CCc1nccc(Oc2cc(C)c(N=CN3CCCC3)cc2C)c1Cl [Example 76] | 1.43
Cc1cc(Oc2cc(Cl)cc(C(C)C)n2)c(C)cc1N=CN1CCCCC1 [Example 53] | 2.34
CCCN(C)C=Nc1cc(C)c(Oc2ccc(C)c(Cl)n2)cc1C [Example 51] | 2.17
Cc1cc(Oc2cc(Cl)cc(C(C)C)n2)c(C)cc1N=CN(C)C(C)C [Example 34] | 2.34
CCN(C)C=Nc1ccc(Oc2cc(-c3ccccc3Cl)c(C)cn2)cc1C [Example 16] | 2.39
CCN(C)C=Nc1cc(C)c(Oc2ccc(C(F)(F)F)c(Cl)n2)cc1C [Example 11] | 2.11
Cc1cc(Oc2cccc(Cl)n2)c(C)cc1N=CN1CCCC1 [Example 46] | 1.81
CCN(C)C=Nc1cc(C)c(Oc2cc(Cl)cc(C)n2)cc1C [Example 23] | 1.58
CCN(C)C=Nc1cc(C)c(Oc2ccnc(C(F)(F)F)c2)cc1C [Example 77] | 1.75
CCN(C)C=Nc1cc(C(C)(C)C)c(Oc2cc(C(F)(F)F)cc(Cl)n2)cc1C [Example 22] | 2.83
C=CCN(C)C=Nc1cc(C)c(Oc2ccnc(CC)c2Cl)cc1C [Example 73] | 1.51
CCCN(C)C=Nc1cc(C)c(Oc2cccc(Br)n2)cc1C [Example 58] | 2.04
CCN(C)C=Nc1ccc(Oc2ccc(Cl)cn2)cc1C [Example 5] | 1.58
Cc1cc(Oc2cc(C(F)(F)F)cc(Cl)n2)ccc1N=CN(C)C(C)C [Example 7] | 2.22
CCN(C)C=Nc1ccc(Oc2cc(C(F)(F)F)cc(Cl)n2)cc1C [Example 4] | 2.20
CCN(C)C=Nc1ccc(Oc2cc(Cl)ccn2)cc1C [Example 3] | 1.50
Cc1cc(Oc2ccnc(Cl)c2)c(C)cc1N=CN1CCCCC1 [Example 70] | 1.66
Cc1cc(Oc2cc(C(F)(F)F)cc(Cl)n2)c(C(C)(C)C)cc1N=CN(C)C(C)C [Example 20] | 3.17
CCCN(C)C=Nc1cc(C)c(Oc2ccnc(CC)c2Cl)cc1C [Example 74] | 1.59
Cc1cc(Oc2ccc(C#N)cn2)c(C)cc1N=CN1CCCCC1 [Example 38] | 1.58
CCc1cc(Cl)cc(Oc2cc(C)c(N=CN3CCCC3)cc2C)n1 [Example 41] | 1.95
CCCN(C)C=Nc1cc(C)c(Oc2ccnc(C(F)(F)F)c2)cc1C [Example 78] | 1.75
CCN(C)C=Nc1cc(C)c(Oc2cc(-c3ccccc3Cl)c(C)cn2)cc1C [Example 15] | 2.58
C=CCN(C)C=Nc1cc(C)c(Oc2ccc(C#N)cn2)cc1C [Example 37] | 1.56
Cc1cc(Oc2cc(Cl)cc(C(C)C)n2)c(C)cc1N=CN1CCCC1 [Example 55] | 2.22

Same assay, conditions: pH 2.3, C 18

SMILES | log P (pH 2.3)
CCN(C)C=Nc1cc(C)c(Oc2cc(C(F)(F)F)cc(Cl)n2)cc1C [Example 1, N-Ethyl-N-methyl-N′-[4-(2-chlor-4-trifluormethylpyridyl-6-oxy)-2,5-xylyl]form-amidine] | 2.39
CCc1nccc(Oc2cc(C)c(N=CN(C)CC)cc2C)c1Cl [Example 68, N-Ethyl-N-methyl-N′-[4-(2-ethyl-3-chloropyridyl-4-oxy)-2,5-xylyl]form-amidine] | 1.47
CCc1nccc(Oc2cc(C)c(N)cc2C)c1Cl [4-(2-Ethyl-3-chloropyridyl-4-oxy)-2,5-xylidine] | 1.66
CCN(C)C=Nc1cc(C)c(Oc2cncc(Cl)c2)cc1C [Example 64, N-Ethyl-N-methyl-N′-[4-(3-chlorpyridyl-5-oxy)-2,5-xylyl]formamidine] | 1.70
Cc1cc([N+](=O)[O-])c(C)cc1Oc1cncc(Cl)c1 [4-(3-chlorpyridyl-5-oxy)-2,5-dimethylnitrobenzene] | 3.61
Cc1cc(Oc2cncc(Cl)c2)c(C)cc1N [4-(3-chlorpyridyl-5-oxy)-2,5-xylidine] | 1.83
